According to patent US20250376461A1, “INDAZOLE DERIVATIVES FOR TREATING TRPM3-MEDIATED DISORDERS” (Katholieke Universiteit Leuven, priority 2022, published 2025):
pIC50: −log10 of the molar value.

molecular target: T1, mouse TRPM3α2 (mTRPM3) ion channel (Mus musculus, UniProt J9SQF3); assay: TRPM3 ion channel driven Ca2+ uptake, Fluo-4 AM assay, mTRPM3alpha2 overexpressing flip-in HEK293 cells stimulated with pregnenolone sulfate (50 μM); format: cell-based; conditions: mTRPM3 overexpressing HEK293 cells stimulated with pregnenolone sulfate (50 μM), activity ranges A, B, C
T1 construct: expressed in transfected cells; host or cells: flip-in HEK293
T1 sequence (J9SQF3 1-1709 isoform J9SQF3-12): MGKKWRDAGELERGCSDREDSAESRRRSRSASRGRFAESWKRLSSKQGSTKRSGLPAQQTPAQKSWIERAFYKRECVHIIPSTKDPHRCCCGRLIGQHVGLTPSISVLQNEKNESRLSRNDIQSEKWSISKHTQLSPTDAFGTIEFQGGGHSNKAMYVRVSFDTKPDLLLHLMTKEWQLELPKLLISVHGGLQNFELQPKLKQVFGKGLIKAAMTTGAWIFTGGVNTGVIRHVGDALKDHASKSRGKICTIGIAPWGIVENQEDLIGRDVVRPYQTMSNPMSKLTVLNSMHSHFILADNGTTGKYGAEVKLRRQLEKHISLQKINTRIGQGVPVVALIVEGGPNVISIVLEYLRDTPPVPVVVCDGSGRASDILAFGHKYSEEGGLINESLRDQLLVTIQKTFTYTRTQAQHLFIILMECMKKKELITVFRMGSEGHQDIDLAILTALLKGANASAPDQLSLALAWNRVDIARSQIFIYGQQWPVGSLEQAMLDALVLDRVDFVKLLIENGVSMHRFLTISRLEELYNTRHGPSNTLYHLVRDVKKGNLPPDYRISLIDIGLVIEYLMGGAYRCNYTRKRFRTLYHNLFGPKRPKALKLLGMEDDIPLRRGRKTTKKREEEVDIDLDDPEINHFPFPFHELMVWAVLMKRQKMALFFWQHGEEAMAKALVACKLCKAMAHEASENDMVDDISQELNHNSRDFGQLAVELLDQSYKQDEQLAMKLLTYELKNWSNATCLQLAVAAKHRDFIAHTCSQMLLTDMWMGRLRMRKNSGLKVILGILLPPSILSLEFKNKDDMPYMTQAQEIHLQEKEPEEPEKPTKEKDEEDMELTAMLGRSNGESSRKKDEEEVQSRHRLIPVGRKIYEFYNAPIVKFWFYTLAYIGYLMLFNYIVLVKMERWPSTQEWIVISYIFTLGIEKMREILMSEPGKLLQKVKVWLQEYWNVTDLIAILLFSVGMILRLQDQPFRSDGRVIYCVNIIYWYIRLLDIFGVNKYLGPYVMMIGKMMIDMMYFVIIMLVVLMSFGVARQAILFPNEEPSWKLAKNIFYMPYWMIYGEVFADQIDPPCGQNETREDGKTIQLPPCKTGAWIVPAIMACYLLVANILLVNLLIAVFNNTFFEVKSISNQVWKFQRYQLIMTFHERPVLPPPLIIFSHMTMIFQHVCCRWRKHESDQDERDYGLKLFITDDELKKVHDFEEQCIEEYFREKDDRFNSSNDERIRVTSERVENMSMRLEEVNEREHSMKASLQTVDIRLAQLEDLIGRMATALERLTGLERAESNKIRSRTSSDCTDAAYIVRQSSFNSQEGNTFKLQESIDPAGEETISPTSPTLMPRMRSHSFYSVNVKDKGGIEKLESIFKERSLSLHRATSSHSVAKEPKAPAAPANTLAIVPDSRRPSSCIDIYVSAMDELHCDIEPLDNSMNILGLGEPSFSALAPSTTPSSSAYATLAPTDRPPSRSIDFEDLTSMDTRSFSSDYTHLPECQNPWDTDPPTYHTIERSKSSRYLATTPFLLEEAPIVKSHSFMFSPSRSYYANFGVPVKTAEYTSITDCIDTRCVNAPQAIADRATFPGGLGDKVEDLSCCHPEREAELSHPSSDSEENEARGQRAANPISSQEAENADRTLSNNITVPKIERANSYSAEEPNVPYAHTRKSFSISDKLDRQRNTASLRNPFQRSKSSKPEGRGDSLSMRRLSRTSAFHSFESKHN
Description: Monitoring the TRPM3 Ion Channel Driven Ca2+ Uptake.
In order to monitor the inhibition of the mouse TRPM3α2 (mTRPM3) ion channel by the compounds of the invention, a cellular system making use of an mTRPM3alpha2 or hTRPM3 overexpressing cell line (flip-in HEK293) was used. The TRPM3 channel was stimulated/opened with Pregnenolone sulfate (PS) (50 μM) which results in Ca^2+ influx.
For mTRPM3, the intracellular Ca^2+ was measured with a Calcium responsive dye, Fluor-4 AM ester (Invitrogen). Cells were cultured until a confluence of 80-90%, washed with Versene (Invitrogen) and detached from the surface by a short incubation with 0.05% Trypsin (Invitrogen). The trypsination process was stopped by the addition of complete cell culture medium (DMEM, glutamax, 10% FCS, NEAA, Pen-Strep). Cells were collected and resuspended in Krebs buffer without Calcium at RT.
Prior the cell seeding (±2000 cells/well into a black, 384 well plate (Greiner)) the diluted compound was added in the assay plate, together with the PS dissolved in Krebs buffer containing Calcium. […] Directly after cell addition the plates were read on an Envision fluorescence reader (Perkin Elmer) by an Excitation of 485 nm and emission at 535 nm.
Channel inhibition was calculated compared to a non-PS stimulated control versus a condition stimulated with PS (50 μM) with vehicle. The ability of the compounds of the invention to inhibit this activity was determined as: Percentage inhibition=[1−((RFU determined for sample with test compound present−RFU determined for sample with positive control inhibitor) divided by (RFU determined in the presence of vehicle−RFU determined for sample with positive control inhibitor))]*100.
The activities of the Example compounds cpd 001-262 tested are depicted in the table below. All tested compounds show an activity in the Fluo-4 AM assay. The activity ranges A, B and C refer to IC50 values in the Fluo-4 AM assay as follows: “A”: IC50<1 μM; “B”: 1 μM≤IC50≤20 μM and “C”: IC50>20 μM.

Compared with `Cn1nc2ccc(OCc3ccccc3)cc2c1C(=O)NC1CNCC1(F)F` (single isomer, unassigned) [Cpd 002 - En1, 5-(benzyloxy)-N-(4,4-difluoropyrrolidin-3-yl)-2-methyl-2H-indazole-3-carboxamide], `Cn1nc2ccc(OCc3ccccn3)cc2c1C(=O)NC1CCNCC1(F)F` (single isomer, unassigned) [Cpd 128 - En1] is higher in pIC50: < 4.70 for the first, 4.70 to 6.00 for the second.

First: Cn1nc2ccc(OCc3ccccc3)cc2c1C(=O)NC1CNCC1(F)F (single isomer, unassigned) [Cpd 002 - En2, 5-(benzyloxy)-N-(4,4-difluoropyrrolidin-3-yl)-2-methyl-2H-indazole-3-carboxamide]
Second: Cn1nc2ccc(OCc3ccccn3)cc2c1C(=O)NC1CCNCC1(F)F (single isomer, unassigned) [Cpd 128 - En2]
The pIC50 of the first is higher: 4.70 to 6.00 for the first, < 4.70 for the second. The first is the more potent here.

First: Cn1nc2ccc(OCc3cccnc3C(F)(F)F)cc2c1C(=O)NC1CCNCC1(F)F (single isomer, unassigned) [Cpd 003 - En1]
Second: Cn1nc2ccc(OCc3cccnc3C(F)(F)F)cc2c1C(=O)N[C@@H]1COC[C@@H]1O (single isomer, unassigned) [Cpd 010 - Dia1]
The pIC50 of the first is higher: > 6.00 for the first, 4.70 to 6.00 for the second. The first is the more potent here.

`Cn1nc2ccc(OCc3cccnc3C(F)(F)F)cc2c1C(=O)NC1CCNCC1(F)F` (single isomer, unassigned) [Cpd 003 - En2] and `Cn1nc2ccc(OCc3cccnc3C(F)(F)F)cc2c1C(=O)N[C@@H]1COC[C@@H]1O` (single isomer, unassigned) [Cpd 010 - Dia2] fall in the same range of pIC50: 4.70 to 6.00 for the first, 4.70 to 6.00 for the second.

`Cn1nc2ccc(OCc3ccccc3)cc2c1C(=O)N[C@@H]1COC[C@H]1O` (single isomer, unassigned) [Cpd 011 - Dia1] and `Cn1nccc1COc1ccc2nn(C)c(C(=O)NC3COCC3O)c2c1` (single isomer, unassigned) [Cpd 056 - Dia1] fall in the same range of pIC50: 4.70 to 6.00 for the first, 4.70 to 6.00 for the second.

Compared with `Cn1nc2ccc(OCc3ccccc3)cc2c1C(=O)N[C@@H]1COC[C@H]1O` (single isomer, unassigned) [Cpd 011 - Dia2], `Cn1nccc1COc1ccc2nn(C)c(C(=O)NC3COCC3O)c2c1` (single isomer, unassigned) [Cpd 056 - Dia2] is lower in pIC50: 4.70 to 6.00 for the first, < 4.70 for the second. The first is the more potent here.

`Cc1ncsc1COc1ccc2nn(C)c(C(=O)NC3COCC3O)c2c1` (single isomer, unassigned) [Cpd 080 - Dia1] and `Cc1ncsc1COc1ccc2nn(C)c(C(=O)NC3CCNCC3(F)F)c2c1` (single isomer, unassigned) [Cpd 132 - En1] fall in the same range of pIC50: 4.70 to 6.00 for the first, 4.70 to 6.00 for the second.

First: Cc1ncsc1COc1ccc2nn(C)c(C(=O)NC3COCC3O)c2c1 (single isomer, unassigned) [Cpd 080 - Dia2]
Second: Cc1ncsc1COc1ccc2nn(C)c(C(=O)NC3CCNCC3(F)F)c2c1 (single isomer, unassigned) [Cpd 132 - En2]
The pIC50 of the first is lower: < 4.70 for the first, 4.70 to 6.00 for the second.

First: Cc1ncsc1COc1ccc2nn(C)c(C(=O)NC(C)(CO)C(N)=O)c2c1 (single isomer, unassigned) [Cpd 151 - En1]
Second: Cc1ncc(COc2ccc3nn(C)c(C(=O)NC(C)(CO)C(N)=O)c3c2)s1 (single isomer, unassigned) [Cpd 157 - En1, 3-hydroxy-2-methyl-2-({2-methyl-5-[(2-methyl-1,3-thiazol-5-yl)methoxy]-2H-indazol-3-yl}formamido)propanamide]
The pIC50 of the first is higher: > 6.00 for the first, 4.70 to 6.00 for the second. The first is the more potent here.

First: Cc1ncsc1COc1ccc2nn(C)c(C(=O)NC(C)(CO)C(N)=O)c2c1 (single isomer, unassigned) [Cpd 151 - En2]
Second: Cc1ncc(COc2ccc3nn(C)c(C(=O)NC(C)(CO)C(N)=O)c3c2)s1 (single isomer, unassigned) [Cpd 157 - En2, 3-hydroxy-2-methyl-2-({2-methyl-5-[(2-methyl-1,3-thiazol-5-yl)methoxy]-2H-indazol-3-yl}formamido)propanamide]
The pIC50 of the first is lower: 4.70 to 6.00 for the first, > 6.00 for the second. The second is the more potent here.

`Cn1nccc1COc1ccc2nn(C)c(C(=O)NC(C)(CO)C(N)=O)c2c1` (single isomer, unassigned) [Cpd 154 - En1] and `Cn1ccc(COc2ccc3nn(C)c(C(=O)NC(C)(CO)C(N)=O)c3c2)n1` (single isomer, unassigned) [Cpd 155 - En1] cannot be ordered by pIC50: < 4.70 for the first, < 4.70 for the second.

Compared with `Cn1nccc1COc1ccc2nn(C)c(C(=O)NC(C)(CO)C(N)=O)c2c1` (single isomer, unassigned) [Cpd 154 - En2], `Cn1ccc(COc2ccc3nn(C)c(C(=O)NC(C)(CO)C(N)=O)c3c2)n1` (single isomer, unassigned) [Cpd 155 - En2] is lower in pIC50: > 6.00 for the first, 4.70 to 6.00 for the second.

First: Cn1nc2ccc(OCC3CCOCC3)cc2c1C(=O)NC(C)(CO)C(N)=O (single isomer, unassigned) [Cpd 158 - En1]
Second: Cn1nc2ccc(OCC3COC3)cc2c1C(=O)NC(C)(CO)C(N)=O (single isomer, unassigned) [Cpd 167 - En1]
The pIC50 of the first is higher: 4.70 to 6.00 for the first, < 4.70 for the second. The first is the more potent here.

`Cn1nc2ccc(OCC3CCOCC3)cc2c1C(=O)NC(C)(CO)C(N)=O` (single isomer, unassigned) [Cpd 158 - En2] and `Cn1nc2ccc(OCC3COC3)cc2c1C(=O)NC(C)(CO)C(N)=O` (single isomer, unassigned) [Cpd 167 - En2] cannot be ordered by pIC50: < 4.70 for the first, < 4.70 for the second.

First: Cn1nc2ccc(OCC3CCC3)cc2c1C(=O)NC1(CO)CCNC1=O (single isomer, unassigned) [Cpd 159 - En1]
Second: Cn1nc2ccc(OCC3CC3)cc2c1C(=O)NC1(CO)CCNC1=O (single isomer, unassigned) [Cpd 161 - En1]
The pIC50 of the first is lower: 4.70 to 6.00 for the first, > 6.00 for the second.

Compared with `Cn1nc2ccc(OCC3CCC3)cc2c1C(=O)NC1(CO)CCNC1=O` (single isomer, unassigned) [Cpd 159 - En2], `Cn1nc2ccc(OCC3CC3)cc2c1C(=O)NC1(CO)CCNC1=O` (single isomer, unassigned) [Cpd 161 - En2] is lower in pIC50: > 6.00 for the first, < 4.70 for the second. The first is the more potent here.

`Cc1nc(COc2ccc3nn(C)c(C(=O)NC(C)(CO)C(N)=O)c3c2)cs1` (single isomer, unassigned) [Cpd 160 - En1] and `Cn1nc2ccc(OCc3ccccn3)cc2c1C(=O)NC(C)(CO)C(N)=O` (single isomer, unassigned) [Cpd 162 - En1] fall in the same range of pIC50: 4.70 to 6.00 for the first, 4.70 to 6.00 for the second.

`Cc1nc(COc2ccc3nn(C)c(C(=O)NC(C)(CO)C(N)=O)c3c2)cs1` (single isomer, unassigned) [Cpd 160 - En2] and `Cn1nc2ccc(OCc3ccccn3)cc2c1C(=O)NC(C)(CO)C(N)=O` (single isomer, unassigned) [Cpd 162 - En2] cannot be ordered by pIC50: > 6.00 for the first, > 6.00 for the second.

Compared with `Cc1ncsc1COc1ccc2nn(C)c(C(=O)NC3(CO)CCNC3=O)c2c1` (single isomer, unassigned) [Cpd 163 - En1, N-[3-(hydroxymethyl)-2-oxopyrrolidin-3-yl]-2-methyl-5-[(4-methyl-1,3-thiazol-5-yl)methoxy]-2H-indazole-3-carboxamide], `Cc1ccc(COc2ccc3nn(C)c(C(=O)NC4(C(N)=O)CCOC4)c3c2)cn1` (single isomer, unassigned) [Cpd 164 - En1, N-(3-carbamoyloxolan-3-yl)-2-methyl-5-[(6-methylpyridin-3-yl)methoxy]-2H-indazole-3-carboxamide] is lower in pIC50: > 6.00 for the first, 4.70 to 6.00 for the second.

`Cc1ncsc1COc1ccc2nn(C)c(C(=O)NC3(CO)CCNC3=O)c2c1` (single isomer, unassigned) [Cpd 163 - En2, N-[3-(hydroxymethyl)-2-oxopyrrolidin-3-yl]-2-methyl-5-[(4-methyl-1,3-thiazol-5-yl)methoxy]-2H-indazole-3-carboxamide] and `Cc1ccc(COc2ccc3nn(C)c(C(=O)NC4(C(N)=O)CCOC4)c3c2)cn1` (single isomer, unassigned) [Cpd 164 - En2, N-(3-carbamoyloxolan-3-yl)-2-methyl-5-[(6-methylpyridin-3-yl)methoxy]-2H-indazole-3-carboxamide] fall in the same range of pIC50: 4.70 to 6.00 for the first, 4.70 to 6.00 for the second.

`Cn1nc2ccc(OCC3CC3)cc2c1C(=O)NC1(C(N)=O)CCOC1` (single isomer, unassigned) [Cpd 165 - En1] and `Cn1nc2ccc(OCc3cccnc3)cc2c1C(=O)NC1(C(N)=O)CCOC1` (single isomer, unassigned) [Cpd 168 - En1] fall in the same range of pIC50: 4.70 to 6.00 for the first, 4.70 to 6.00 for the second.

First: Cn1nc2ccc(OCC3CC3)cc2c1C(=O)NC1(C(N)=O)CCOC1 (single isomer, unassigned) [Cpd 165 - En2]
Second: Cn1nc2ccc(OCc3cccnc3)cc2c1C(=O)NC1(C(N)=O)CCOC1 (single isomer, unassigned) [Cpd 168 - En2]
The pIC50 of the first is lower: < 4.70 for the first, > 6.00 for the second.

`Cn1nc2ccc(OCc3ccccc3F)cc2c1C(=O)NC1(C(N)=O)CCOC1` (single isomer, unassigned) [Cpd 166 - En1] showed a pIC50 of 4.70 to 6.00.
With `Cn1nc2ccc(OCc3ccccc3F)cc2c1C(=O)NC1(C(N)=O)CCOC1` (single isomer, unassigned) [Cpd 166 - En2] the pIC50 was > 6.00.
